Measurements published in ChEMBL document CHEMBL3044826, “Design, synthesis and biological evaluation of some novel substituted 2-mercapto-3-phenethylquinazolines as antitumor agents” (2013).

Key:
Assay type in all cases: functional
UO-31 = test: Cytotoxicity against Homo sapiens (human) UO31 cells assessed as growth inhibition at 10 uM after 48 hr by coulter counter analysis; conditions: UO-31, 48 h, read-out: GI
UACC-62 = test: Cytotoxicity against Homo sapiens (human) UACC62 cells assessed as growth inhibition at 10 uM after 48 hr by coulter counter analysis; conditions: UACC-62, 48 h, read-out: GI
NCI-H460 = test: Cytotoxicity against Homo sapiens (human) NCI-H460 cells assessed as growth inhibition at 10 uM after 48 hr by coulter counter analysis; conditions: NCI-H460, 48 h, read-out: GI
A498 = test: Cytotoxicity against Homo sapiens (human) A498 cells assessed as growth inhibition at 10 uM after 48 hr by coulter counter analysis; conditions: A498, 48 h, read-out: GI
CAKI-1 = test: Cytotoxicity against Homo sapiens (human) Caki1 cells assessed as growth inhibition at 10 uM after 48 hr by coulter counter analysis; conditions: CAKI-1, 48 h, read-out: GI
HOP-62 = test: Cytotoxicity against Homo sapiens (human) HOP62 cells assessed as growth inhibition at 10 uM after 48 hr by coulter counter analysis; conditions: HOP-62, 48 h, read-out: GI
NCI-H226 = test: Cytotoxicity against Homo sapiens (human) NCI-H226 cells assessed as growth inhibition at 10 uM after 48 hr by coulter counter analysis; conditions: NCI-H226, 48 h, read-out: GI
SK-MEL-5 = test: Cytotoxicity against Homo sapiens (human) SK-MEL-5 cells assessed as growth inhibition at 10 uM after 48 hr by coulter counter analysis; conditions: SK-MEL-5, 48 h, read-out: GI
[1] = Cytotoxicity against Homo sapiens (human) NCI-ADR-RES cells assessed as growth inhibition at 10 uM after 48 hr by coulter counter analysis; conditions: read-out: GI
RXF 393 = test: Cytotoxicity against Homo sapiens (human) RXF393 cells assessed as growth inhibition at 10 uM after 48 hr by coulter counter analysis; conditions: RXF 393, 48 h, read-out: GI
NCI-H522 = test: Cytotoxicity against Homo sapiens (human) NCI-H522 cells assessed as growth inhibition at 10 uM after 48 hr by coulter counter analysis; conditions: NCI-H522, 48 h, read-out: GI
Hs-578T = test: Cytotoxicity against Homo sapiens (human) Hs578T cells assessed as growth inhibition at 10 uM after 48 hr by coulter counter analysis; conditions: read-out: GI
786-0 = test: Cytotoxicity against Homo sapiens (human) 786-0 cells assessed as growth inhibition at 10 uM after 48 hr by coulter counter analysis; conditions: 786-0, 48 h, read-out: GI
SNB-75 = test: Cytotoxicity against Homo sapiens (human) SNB75 cells assessed as growth inhibition at 10 uM after 48 hr by coulter counter analysis; conditions: SNB-75, 48 h, read-out: GI
NCI-H23 = test: Cytotoxicity against Homo sapiens (human) NCI-H23 cells assessed as growth inhibition at 10 uM after 48 hr by coulter counter analysis; conditions: NCI-H23, 48 h, read-out: GI
UACC-257 = test: Cytotoxicity against Homo sapiens (human) UACC257 cells assessed as growth inhibition at 10 uM after 48 hr by coulter counter analysis; conditions: UACC-257, 48 h, read-out: GI
EKVX = test: Cytotoxicity against Homo sapiens (human) EKVX cells assessed as growth inhibition at 10 uM after 48 hr by coulter counter analysis; conditions: read-out: GI
T47D = test: Cytotoxicity against Homo sapiens (human) T47D cells assessed as growth inhibition at 10 uM after 48 hr by coulter counter analysis; conditions: read-out: GI

| Compound | inhibition of growth at 10 µM (UO-31) | inhibition of growth at 10 µM (UACC-62) | inhibition of growth at 10 µM (NCI-H460) | inhibition of growth at 10 µM (A498) | inhibition of growth at 10 µM (CAKI-1) | inhibition of growth at 10 µM (HOP-62) | inhibition of growth at 10 µM (NCI-H226) | inhibition of growth at 10 µM (SK-MEL-5) | inhibition of growth at 10 µM [1] | inhibition of growth at 10 µM (RXF 393) | inhibition of growth at 10 µM (NCI-H522) | inhibition of growth at 10 µM (Hs-578T) | inhibition of growth at 10 µM (786-0) | inhibition of growth at 10 µM (SNB-75) | inhibition of growth at 10 µM (NCI-H23) | inhibition of growth at 10 µM (UACC-257) | inhibition of growth at 10 µM (EKVX) | inhibition of growth at 10 µM (T47D) |
| --- | --- | --- | --- | --- | --- | --- | --- | --- | --- | --- | --- | --- | --- | --- | --- | --- | --- | --- |
| O=c1c2ccccc2nc(SCCN2CCCCC2)n1CCc1ccccc1 | 43% | < 10% | < 10% | 17% | 27% | 11% | < 10% | 24% | 13% | 19% | 11% | < 10% | 14% | 13% | 23% | < 10% | 30% | 35% |
| O=C(CSc1nc2ccccc2c(=O)n1CCc1ccccc1)c1ccc(F)cc1 | 42% | < 10% | < 10% | < 10% | 21% | < 10% | < 10% | < 10% | < 10% | < 10% | < 10% | 25% | 32% | < 10% | 20% | < 10% | 16% | 18% |
| O=c1c2ccccc2nc(SCc2ccc([N+](=O)[O-])cc2)n1CCc1ccccc1 | < 10% | 22% | < 10% | < 10% | 17% | < 10% |  | < 10% | 12% | < 10% | < 10% | 19% | < 10% | < 10% | 15% | < 10% | 19% | 15% |
| O=c1c2ccccc2nc(SCCN2CCOCC2)n1CCc1ccccc1 | 14% | < 10% | < 10% | < 10% | < 10% | < 10% | < 10% | < 10% | < 10% | < 10% | < 10% | < 10% | < 10% | < 10% | < 10% | < 10% | < 10% |  |
| O=C1c2ccccc2C(=O)N1CCCSc1nc2ccccc2c(=O)n1CCc1ccccc1 | 19% | 26% | < 10% | 20% | 34% | < 10% | < 10% | 43% | < 10% | < 10% | 13% |  | 13% | < 10% | < 10% | < 10% | 16% | 30% |
| CSc1nc2ccccc2c(=O)n1CCc1ccccc1 | 37% | 12% | < 10% | 18% | < 10% | 12% | 11% | 19% | 18% | 30% | < 10% | 14% |  | < 10% | 16% | < 10% | 29% | 59% |
